From patent US20250262189A1, “TREATMENT OF DISEASES ASSOCIATED WITH REDUCTIVE STRESS” (RDiscovery, LLC, priority 2022, published 2025)
“Also recorded” adds a separate entry of the source.

Test system: GDF-15 expression in HUVEC cells
Assay: GDF-15 mRNA expression by RT-qPCR in HUVEC cells under AZT-induced reductive stress
Assay type: cell-based, Human
Conditions: AZT 5 μM with ZLN-005 1 μM, harvested Day 6, two sets of runs (FIG. 1, FIG. 2), AZT vs. AZT/ZLN P=0.016 (FIG. 2)
Method: A study was performed to evaluate the ability of ZLN-005 to mitigate the effects of reductive stress induced by azidothymidine (AZT), which is believed to inhibit mitochondrial respiratory chain complex I and II.
Human human umbilical vein endothelial (HUVEC) cells were cultured in HuMedia-EG2 medium (Kurabo) at 5×10^4 cells per well in a six-well plate. Medium was supplemented with AZT (Sigma) at 5 μM, with or without ZLN-005 at 1 μM. Cells cultured without AZT and without ZLN-005 were used as non-treated control (NTC)). Medium was changed on days 2 and 4. Cells were harvested on Day 6 for analysis of GDF-15 mRNA expression by quantitative reverse transcription PCR (RT-qPCR).

## CC(C)(C)c1ccc(-c2nc3ccccc3[nH]2)cc1 [ZLN-005, 2-(4-tert-butylphenyl)-1H-benzimidazole]
  GDF-15 expression compared to cells treated with AZT but not ZLN-005: reduced GDF-15 expression; also recorded: decreases expression of reductive stress biomarker GDF-15
